# How the values were obtained:
# C57BL/6J mice = experiment: Estimation of urinary glucose in C57BL/6J mice; format: in vivo, mouse; settings: urine collected over 24 h
# Experimental: Estimation of Urinary Glucose in C57BL/6J Mice
# C57BL/6J mice were fasted 4 h before drug treatment. Fasted mice were weighed and randomized into different groups based on their body weight (n=6). At time T0 test compounds and standard compounds suspended in 0.25% CMC or PEG 400 formulation, were administered to respective groups and kept in metabolic cages (6 mice/cage) after dosing. Animals were fed after drug administration and urine was collected over a period of 24 h. Urinary volume was measured and urinary glucose was estimated using Merckotest Glucose Reagent (Merck Specialities Pvt. Ltd., India).
# human SGLT-1 = target: T1, human SGLT-1 (Homo sapiens, UniProt P13866); experiment: Methyl-α-D-[U-14C]Glucopyranoside uptake assay for SGLT-1 in CHO-K1 cells expressing hSGLT-1; format: cell-based; settings: N.E. = Not Effective
# T1 construct: Full-length human SGLT-1 cDNA in the pCMV-XL-Neo expression vector was obtained from Origene Corporation
# T1 sequence (P13866 1-664): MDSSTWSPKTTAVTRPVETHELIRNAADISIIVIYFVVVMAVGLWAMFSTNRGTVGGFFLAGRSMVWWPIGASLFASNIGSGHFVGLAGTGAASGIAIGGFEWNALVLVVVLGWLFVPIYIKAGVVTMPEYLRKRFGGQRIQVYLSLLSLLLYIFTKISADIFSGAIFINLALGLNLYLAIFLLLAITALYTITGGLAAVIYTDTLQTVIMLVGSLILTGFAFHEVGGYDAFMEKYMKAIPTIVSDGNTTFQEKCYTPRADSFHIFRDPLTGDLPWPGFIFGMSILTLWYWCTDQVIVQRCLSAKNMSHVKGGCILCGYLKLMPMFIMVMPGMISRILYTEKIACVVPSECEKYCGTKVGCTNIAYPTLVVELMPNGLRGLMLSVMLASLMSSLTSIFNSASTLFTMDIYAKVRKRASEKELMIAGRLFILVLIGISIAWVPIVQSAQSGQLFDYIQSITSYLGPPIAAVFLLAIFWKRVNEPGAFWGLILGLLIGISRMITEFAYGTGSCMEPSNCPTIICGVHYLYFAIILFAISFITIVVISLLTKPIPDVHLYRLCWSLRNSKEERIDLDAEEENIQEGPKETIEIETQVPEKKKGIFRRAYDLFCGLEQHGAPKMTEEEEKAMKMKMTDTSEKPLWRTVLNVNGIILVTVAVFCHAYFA
# Experimental: Preparation of Human SGLT-1 Expressing Cells
# Full-length human SGLT-1 cDNA in the pCMV-XL-Neo expression vector was obtained from Origene Corporation and propagated in Escherichia coli strain DH5α using Luria-Bertani (LB) medium containing ampicillin. […] Stably transfected cells were selected using G418 antibiotic selection pressure.
# Methyl-α-D-[U-^14C]Glucopyranoside Uptake Assay for SGLT-1
# (§1) Cells expressing hSGLT-1 were seeded on 96-well tissue culture plates (Greiner, Inc.) in RPMI containing 10% FBS and 800 μg/ml G418 (0.8×10^5 cells per well in 200 μL medium) and incubated at 37° C. under 5% carbon dioxide for 24 h prior to the assay. Cells were washed twice with 200 μL of either sodium buffer (140 mM NaCl, 4.7 mM KCl, 2.2 mM CaCl2, 1.2 mM MgCl2, 10 mM Tris/Hepes, pH 7.4) or sodium-free buffer (137 mM N-methyl-glucamine, 4.7 mM KCl, 2.2 mM CaCl2, 1.2 mM MgCl2, 10 mM Tris/Hepes, pH 7.4). Reaction mixture containing test compounds diluted in assay buffer, 1 mM unlabeled Methyl-α-D-glucopyranoside and 1 μCi/well methyl-α-D-[U-^14C]glucopyranoside (American Radiochemicals) was added per well of a 96-well plate and incubated at 37° C. for 1 h. Cells were washed thrice with 200 μL of wash buffer (140 mM NaCl, 4.7 mM KCl, 2.2 mM CaCl2, 1.2 mM MgCl2, 10 mM Tris/Hepes, pH 7.4 containing 500 μM phlorizin) and lysed using 50 μL of 0.25N NaOH. Methyl-α-D-[U-^14C]glucopyranoside uptake was quantitated using a Top count scintillation counter (PerkinElmer, Inc.). All the test compounds were assayed in triplicates.
# mouse SGLT-2 = target: T2, mouse SGLT-2 (Mus musculus, UniProt Q923I7); experiment: Methyl-α-D-[U-14C]Glucopyranoside uptake assay for SGLT-2 in CHO-K1 cells expressing mSGLT-2; format: cell-based; settings: N.E. = Not Effective
# T2 construct: Full-length mouse SGLT-2 cDNA was amplified from C57BL/6J mouse kidneys and introduced in the pcDNA3.1(+) expression vector; expressed in transfected cells
# T2 sequence (Q923I7 1-670): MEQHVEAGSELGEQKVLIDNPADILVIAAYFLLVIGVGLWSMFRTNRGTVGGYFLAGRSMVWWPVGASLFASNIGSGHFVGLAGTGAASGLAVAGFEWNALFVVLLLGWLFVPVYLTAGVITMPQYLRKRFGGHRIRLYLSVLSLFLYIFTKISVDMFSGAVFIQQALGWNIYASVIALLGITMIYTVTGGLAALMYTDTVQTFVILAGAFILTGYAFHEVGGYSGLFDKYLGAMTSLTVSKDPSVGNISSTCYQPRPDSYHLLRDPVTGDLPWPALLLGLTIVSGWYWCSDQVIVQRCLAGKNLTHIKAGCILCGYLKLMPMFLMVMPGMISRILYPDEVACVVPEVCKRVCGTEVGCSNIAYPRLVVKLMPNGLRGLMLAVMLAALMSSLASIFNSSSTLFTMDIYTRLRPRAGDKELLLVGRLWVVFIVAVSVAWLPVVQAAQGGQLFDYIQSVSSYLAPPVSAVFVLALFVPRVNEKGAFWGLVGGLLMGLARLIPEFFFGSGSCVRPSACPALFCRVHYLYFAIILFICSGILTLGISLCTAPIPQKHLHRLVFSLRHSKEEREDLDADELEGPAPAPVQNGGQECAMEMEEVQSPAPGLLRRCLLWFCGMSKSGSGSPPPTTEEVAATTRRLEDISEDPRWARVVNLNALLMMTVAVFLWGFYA
# Experimental: Preparation of Mouse SGLT-2 Expressing Cells
# Full-length mouse SGLT-2 cDNA was amplified from C57BL/6J mouse kidneys and introduced in the pcDNA3.1(+) expression vector (Invitrogen, Inc.) and propagated in Escherichia coli strain DH5α using Luria-Bertani (LB) medium containing ampicillin. […] Stably transfected cells were selected using G418 antibiotic selection pressure.
# Methyl-α-D-[U-^14C]Glucopyranoside Uptake Assay for SGLT-2
# as §1, with “Cells expressing mSGLT-2 were seeded” for “Cells expressing hSGLT-1 were seeded”, “FBS and 400 μg/mL G418 (0.8×10^5” for “FBS and 800 μg/ml G418 (0.8×10^5”, “test compounds at different concentrations diluted in” for “test compounds diluted in”, “assay buffer, 0.1 mM unlabeled” for “assay buffer, 1 mM unlabeled”, “1 μCi/well methyl-α-D[U-^14C]glucopyranoside (American Radiochemicals)” for “1 μCi/well methyl-α-D-[U-^14C]glucopyranoside (American Radiochemicals)”, “0.25N NaOH. Methyl-α-D[U-^14C]glucopyranoside uptake was” for “0.25N NaOH. Methyl-α-D-[U-^14C]glucopyranoside uptake was”
# Rats = experiment: Estimation of urinary glucose in rat; format: in vivo; settings: urine collected over 24 hrs
# Experimental: Estimation of Urinary Glucose in Rat
# Rats were fasted overnight (14 hrs) before drug treatment. Fasted rats were weighed and randomized into different groups based on their body weight (n=4). At time To test compounds and standard compound suspended in 0.25% C.M.C. or PEG 400 formulation were administered to respective groups and kept the animals in metabolic cages (1 rat/cage) after dosing. Animals were fed after drug administration and urine was collected over a period of 24 hrs. Urine volume was measured and urinary glucose was estimated using Merckotest Glucose Reagent (Merck Specialities Pvt. Ltd., India).
% inhibition of Methyl-α-D-[U-14C] Glucopyranoside uptake (CHO-K1 cells) mediated by SGLT-1 (human SGLT-1; 100 nM compound),% inhibition of Methyl-α-D-[U-14C] Glucopyranoside uptake (CHO-K1 cells) mediated by SGLT-1 (human SGLT-1; 1 μM compound),% inhibition of Methyl-α-D-[U-14C] Glucopyranoside uptake (CHO-K1 cells) mediated by SGLT-1 (human SGLT-1; 10 μM compound),% inhibition of Methyl-α-D-[U-14C] Glucopyranoside uptake (CHO-K1 cells) mediated by SGLT-2 (mouse SGLT-2; 0.1 nM compound),% inhibition of Methyl-α-D-[U-14C] Glucopyranoside uptake (CHO-K1 cells) mediated by SGLT-2 (mouse SGLT-2; 1 nM compound),% inhibition of Methyl-α-D-[U-14C] Glucopyranoside uptake (CHO-K1 cells) mediated by SGLT-2 (mouse SGLT-2; 10 nM compound),% inhibition of Methyl-α-D-[U-14C] Glucopyranoside uptake (CHO-K1 cells) mediated by SGLT-2 (mouse SGLT-2; 100 nM compound),Compound,UGE in mice (in mg/g of feed consumed) at 3 mpk (C57BL/6J mice),UGE in rat (in mg/g of feed consumed) at 3 mpk (Rats)
N.E.,N.E.,56.97%,44.36%,48.64%,42.26%,74.40%,"1-(4-(2-chloro-5-((2S,3R,4R,5S,6R)-3,4,5-trihydroxy-6-(hydroxymethyl)tetrahydro-2H-pyran-2-yl)benzyl)phenyl)-propan-1-one O-methyl oxime [Compound 7]",78.4 mg/g of feed consumed,
N.E.,22.68%,60.02%,44.05%,45.09%,62.06%,89.78%,"1-(4-(2-chloro-5-((2S,3R,4R,5S,6R)-3,4,5-trihydroxy-6-(hydroxymethyl)tetrahydro-2H-pyran-2-yl)benzyl)phenyl)ethanone O-ethyl oxime [Compound 6]",78.1 mg/g of feed consumed,
N.E.,N.E.,49.74%,23.91%,45.81%,50.06%,91.98%,"1-(4-(2-chloro-5-((2S,3R,4R,5S,6S)-3,4,5-trihydroxy-6-methoxy tetrahydro-2H-pyran-2-yl)benzyl)phenyl)ethanone O-ethyl oxime [Compound 5]",81.7 mg/g of feed consumed,

# More lines, now with the values behind:
Compound,% inhibition of Methyl-α-D-[U-14C] Glucopyranoside uptake (CHO-K1 cells) mediated by SGLT-1 (human SGLT-1; 100 nM compound),% inhibition of Methyl-α-D-[U-14C] Glucopyranoside uptake (CHO-K1 cells) mediated by SGLT-1 (human SGLT-1; 1 μM compound),% inhibition of Methyl-α-D-[U-14C] Glucopyranoside uptake (CHO-K1 cells) mediated by SGLT-1 (human SGLT-1; 10 μM compound),% inhibition of Methyl-α-D-[U-14C] Glucopyranoside uptake (CHO-K1 cells) mediated by SGLT-2 (mouse SGLT-2; 0.1 nM compound),% inhibition of Methyl-α-D-[U-14C] Glucopyranoside uptake (CHO-K1 cells) mediated by SGLT-2 (mouse SGLT-2; 1 nM compound),% inhibition of Methyl-α-D-[U-14C] Glucopyranoside uptake (CHO-K1 cells) mediated by SGLT-2 (mouse SGLT-2; 10 nM compound),% inhibition of Methyl-α-D-[U-14C] Glucopyranoside uptake (CHO-K1 cells) mediated by SGLT-2 (mouse SGLT-2; 100 nM compound),UGE in mice (in mg/g of feed consumed) at 3 mpk (C57BL/6J mice),UGE in rat (in mg/g of feed consumed) at 3 mpk (Rats)
"1-(4-(2-chloro-5-((1S,2S,3S,4R,5S)-2,3,4-trihydroxy-1-(hydroxymethyl)-6,8-dioxabicyclo[3.2.1]octan-5-yl)benzyl)phenyl)ethanone O-ethyl oxime [Compound 8]",20.63%,55.66%,88.57%,N.E.,25.35%,72.44%,90.93%,60.6 mg/g of feed consumed,
"1-(4-(2-chloro-5-((1S,2S,3S,4R,5S)-2,3,4-trihydroxy-1-(hydroxymethyl)-6,8-dioxabicyclo[3.2.1]octan-5-yl)benzyl)phenyl)ethanone O-methyl oxime [Compound 4]",,,,,,,,76.2 mg/g of feed consumed,
"1-(4-(2-chloro-5-((1S,2S,3S,4R,5S)-2,3,4-trihydroxy-1-(hydroxymethyl)-6,8-dioxabicyclo[3.2.1]octan-5-yl)benzyl)phenyl)propan-1-one O-methyl oxime [Compound 3]",N.E.,N.E.,63.64%,26.42%,26.10%,59.52%,93.34%,81.9 mg/g of feed consumed,67.4 mg/g of feed consumed
CCON=C(CC)c1ccc(Cc2cc([C@@H]3O[C@H](CO)[C@@H](O)[C@H](O)[C@H]3O)ccc2Cl)cc1 [Compound 17],,,,,,,,64.5 mg/g of feed consumed,
